{"source": "paper PMC6934184", "about": "“Selective DNA-PKcs inhibition extends the therapeutic index of localized radiotherapy and chemotherapy” (The Journal of Clinical Investigation, 2019)", "molecular_target": "T1, CHEK2 (CHK2) (Homo sapiens, UniProt O96017)", "T1 construct": "purchased Thermo Fisher Scientific (Life Technologies) SelectScreen", "T1 sequence (O96017 whole entry)": "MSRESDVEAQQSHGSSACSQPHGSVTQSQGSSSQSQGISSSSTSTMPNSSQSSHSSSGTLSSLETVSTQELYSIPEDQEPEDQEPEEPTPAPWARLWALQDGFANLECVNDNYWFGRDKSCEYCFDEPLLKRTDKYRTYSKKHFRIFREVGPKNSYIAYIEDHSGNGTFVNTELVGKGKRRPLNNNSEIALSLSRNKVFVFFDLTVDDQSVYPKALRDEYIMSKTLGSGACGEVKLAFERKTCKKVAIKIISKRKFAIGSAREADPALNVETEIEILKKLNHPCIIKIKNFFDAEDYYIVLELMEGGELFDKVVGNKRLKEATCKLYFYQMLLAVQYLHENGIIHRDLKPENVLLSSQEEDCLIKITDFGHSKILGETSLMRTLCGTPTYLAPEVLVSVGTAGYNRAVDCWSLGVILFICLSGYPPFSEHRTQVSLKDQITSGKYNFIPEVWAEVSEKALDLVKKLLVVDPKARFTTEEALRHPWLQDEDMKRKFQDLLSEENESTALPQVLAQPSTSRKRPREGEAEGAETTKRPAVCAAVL", "assay": "SelectScreen Z'LYTE", "format": "biochemical", "how_it_was_run": "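NU5455 was profiled across the SelectScreen Broad panel of kinase activity and binding assays. Z'LYTE reactions such as CSF1R ran at apparent Km ATP, while the Adapta CAMK1 assay used ATP listed as 10. Values are given as percent.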"}
{"smiles": "CN(C(=O)CN1CCOCC1)c1ccc2sc3c(-c4cccc5c(=O)cc(N6CC7CCC(C6)O7)oc45)cccc3c2c1", "note": "[NU5455]", "values": [{"measurement": "inhibition at 1 µM", "result": -11.7, "unit": "%"}]}
